Experiment [1] deals with Proto-oncogene tyrosine-protein kinase receptor Ret (Homo sapiens, UniProt P07949, V804L). As to the kind of experiment: Inhibition of RET V804L mutant (unknown origin) by FRET-based ZLyte kinase assay.
Experiment [2] has as its target Proto-oncogene tyrosine-protein kinase receptor Ret (Homo sapiens, UniProt P07949, M918T). As to the kind of experiment: Inhibition of RET M918T mutant (unknown origin) by FRET-based ZLyte kinase assay.
The target of experiment [3] is Proto-oncogene tyrosine-protein kinase receptor Ret (Homo sapiens, UniProt P07949, G810R). As to the kind of experiment: Inhibition of RET G810R mutant (unknown origin) by FRET-based ZLyte kinase assay.
Experiment [4] deals with Proto-oncogene tyrosine-protein kinase receptor Ret (Homo sapiens, UniProt P07949). As to the kind of experiment: Inhibition of wild type RET (unknown origin) by FRET-based ZLyte kinase assay.
For experiment [5], the system named is Proto-oncogene tyrosine-protein kinase receptor Ret (Homo sapiens), P07949 [V804L]. The experiment in a line: Potency index, ratio of Vandetanib IC50 to test compound IC50 for inhibition of RET V804L mutant (unknown origin) by FRET-based ZLyte kinase assay.
The test system of experiment [6] is Proto-oncogene tyrosine-protein kinase receptor Ret (Homo sapiens), P07949 [G810R]. The experiment in a line: Potency index, ratio of Vandetanib IC50 to test compound IC50 for inhibition of RET G810R mutant (unknown origin) by FRET-based ZLyte kinase assay.
In experiment [7] the test system is BaF3. The experiment in a line: Antiproliferative activity against mouse BaF3 cells harbouring CCDC6-RET G810R mutant assessed as inhibition of cell viability. Type of experiment: functional, cell-based.
The subject of experiment [8] is BaF3. The experiment in a line: Antiproliferative activity against mouse BaF3 cells harbouring KIF5B-RET wild type assessed as inhibition of cell viability. Type of experiment: functional, cell-based.
Experiment [9] deals with BaF3. As to the kind of experiment: Antiproliferative activity against mouse BaF3 cells harbouring KIF5B-RET V804L mutant assessed as inhibition of cell viability. The experiment is classed as functional, cell-based.
Experiment [10] has as its system BaF3. The experiment in a line: Antiproliferative activity against mouse BaF3 cells harbouring KIF5B-RET G810R mutant assessed as inhibition of cell viability. Type of experiment: functional, cell-based.
Experiment [11] deals with BaF3. As to the kind of experiment: Antitumor activity against mouse BaF3 cells harbouring KIF5B-RET G810R mutant xenografted in mouse model assessed as tumor growth inhibition at 10 mg/kg BID measured upto 14 days relative to control. Type of experiment: functional. The note with it: BaF3, 336 h, time <= 14 day, read-out: TGI.
Experiment [12] concerns BaF3. The experiment in a line: Antiproliferative activity against mouse BaF3 cells harbouring CCDC6-RET wild type assessed as inhibition of cell viability. The experiment is classed as functional, cell-based.
In experiment [13] the test system is BaF3. As to the kind of experiment: Antitumor activity against mouse BaF3 cells harbouring KIF5B-RET-wild type xenografted in mouse model assessed as tumor growth inhibition at 10 mg/kg BID measured upto 14 days relative to control. The experiment is classed as functional. As to conditions: BaF3, 336 h, time <= 14 day, read-out: TGI.
The test system of experiment [14] is Proto-oncogene tyrosine-protein kinase receptor Ret (Homo sapiens), P07949 [G810R]. The experiment in a line: Potency index, ratio of selpercatinib IC50 to test compound IC50 for inhibition of RET G810R mutant (unknown origin) by FRET-based ZLyte kinase assay.

A value given as a limit tells only on which side of the number the result lay.

33 compounds from ChEMBL document CHEMBL6127078, “Discovery of 7-(1-methyl-1H-pyrazol-4-yl)-1,6-naphthyridine derivatives as potent inhibitors of rearranged during transfection (RET) and RET solvent-front mutants for overcoming selpercatinib resistance” (Eur J Med Chem, 2024) can be followed below.

By IC50 is commonly meant the midpoint of a concentration-inhibition curve.

Chain of Proto-oncogene tyrosine-protein kinase receptor Ret (Homo sapiens, UniProt P07949, G810R) (P07949 29-1114 G810R limits assumed): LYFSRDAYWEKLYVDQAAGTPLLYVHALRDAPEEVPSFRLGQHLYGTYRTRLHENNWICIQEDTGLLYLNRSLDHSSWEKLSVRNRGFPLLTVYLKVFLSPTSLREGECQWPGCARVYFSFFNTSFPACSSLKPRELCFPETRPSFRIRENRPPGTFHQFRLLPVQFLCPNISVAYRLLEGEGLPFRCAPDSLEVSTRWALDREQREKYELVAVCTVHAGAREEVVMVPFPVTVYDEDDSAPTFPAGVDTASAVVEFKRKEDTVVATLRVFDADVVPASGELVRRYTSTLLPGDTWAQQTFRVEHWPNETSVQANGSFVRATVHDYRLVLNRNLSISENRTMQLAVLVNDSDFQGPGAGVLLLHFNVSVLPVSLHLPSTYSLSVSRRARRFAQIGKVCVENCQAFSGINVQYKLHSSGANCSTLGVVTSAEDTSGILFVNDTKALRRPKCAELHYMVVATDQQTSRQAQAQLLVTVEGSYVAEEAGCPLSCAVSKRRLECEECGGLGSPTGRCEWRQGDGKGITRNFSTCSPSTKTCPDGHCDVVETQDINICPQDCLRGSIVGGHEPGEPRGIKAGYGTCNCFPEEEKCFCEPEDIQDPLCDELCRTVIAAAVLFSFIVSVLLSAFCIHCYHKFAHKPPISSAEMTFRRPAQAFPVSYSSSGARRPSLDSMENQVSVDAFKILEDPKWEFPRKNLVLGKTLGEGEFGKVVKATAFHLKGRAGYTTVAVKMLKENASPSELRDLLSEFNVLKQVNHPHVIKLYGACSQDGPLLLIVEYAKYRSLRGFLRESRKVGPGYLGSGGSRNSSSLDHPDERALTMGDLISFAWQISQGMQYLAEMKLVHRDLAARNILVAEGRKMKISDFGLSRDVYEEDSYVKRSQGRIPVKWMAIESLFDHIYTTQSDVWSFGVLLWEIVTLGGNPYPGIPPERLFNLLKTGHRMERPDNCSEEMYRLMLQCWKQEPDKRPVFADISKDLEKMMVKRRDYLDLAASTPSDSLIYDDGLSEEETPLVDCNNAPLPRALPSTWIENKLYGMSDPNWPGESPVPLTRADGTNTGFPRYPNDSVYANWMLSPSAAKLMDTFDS
Chain of Proto-oncogene tyrosine-protein kinase receptor Ret (Homo sapiens), P07949 [G810R] (P07949 whole entry G810R): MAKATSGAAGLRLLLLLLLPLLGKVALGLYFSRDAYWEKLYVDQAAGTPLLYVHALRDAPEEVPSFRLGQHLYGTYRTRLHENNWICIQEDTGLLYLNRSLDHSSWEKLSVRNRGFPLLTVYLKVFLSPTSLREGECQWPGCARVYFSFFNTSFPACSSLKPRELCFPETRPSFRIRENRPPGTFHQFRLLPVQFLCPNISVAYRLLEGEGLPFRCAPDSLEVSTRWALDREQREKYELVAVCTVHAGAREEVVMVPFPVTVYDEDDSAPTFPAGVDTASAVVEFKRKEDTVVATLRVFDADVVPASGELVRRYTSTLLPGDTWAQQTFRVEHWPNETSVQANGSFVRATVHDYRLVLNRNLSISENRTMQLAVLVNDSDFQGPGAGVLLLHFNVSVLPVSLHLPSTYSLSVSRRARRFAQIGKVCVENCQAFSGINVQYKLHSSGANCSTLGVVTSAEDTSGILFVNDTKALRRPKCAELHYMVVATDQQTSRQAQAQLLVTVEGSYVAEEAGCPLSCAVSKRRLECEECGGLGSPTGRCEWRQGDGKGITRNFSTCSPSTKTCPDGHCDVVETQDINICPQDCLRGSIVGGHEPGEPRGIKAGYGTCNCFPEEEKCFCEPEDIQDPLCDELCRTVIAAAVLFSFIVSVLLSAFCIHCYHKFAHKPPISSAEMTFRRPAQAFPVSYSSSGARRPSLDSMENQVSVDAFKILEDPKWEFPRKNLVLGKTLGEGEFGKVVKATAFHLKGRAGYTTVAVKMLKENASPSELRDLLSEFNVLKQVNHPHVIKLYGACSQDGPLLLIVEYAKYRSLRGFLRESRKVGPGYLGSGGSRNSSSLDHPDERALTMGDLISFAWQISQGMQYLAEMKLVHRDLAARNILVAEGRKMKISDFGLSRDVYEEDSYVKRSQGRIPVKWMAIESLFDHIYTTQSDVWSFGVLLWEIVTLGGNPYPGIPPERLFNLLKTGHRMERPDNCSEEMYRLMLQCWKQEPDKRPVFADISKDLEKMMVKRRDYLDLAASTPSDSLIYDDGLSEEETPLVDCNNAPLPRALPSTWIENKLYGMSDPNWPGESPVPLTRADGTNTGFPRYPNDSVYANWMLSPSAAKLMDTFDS
Chain of Proto-oncogene tyrosine-protein kinase receptor Ret (Homo sapiens, UniProt P07949, M918T) (P07949 29-1114 M918T limits assumed): as the sequence (P07949 29-1114 G810R limits assumed) above, with R782G, M890T counted along it
Chain of Proto-oncogene tyrosine-protein kinase receptor Ret (Homo sapiens, UniProt P07949, V804L) (P07949 29-1114 V804L limits assumed): as the sequence (P07949 29-1114 G810R limits assumed) above, with V776L, R782G counted along it
Chain of Proto-oncogene tyrosine-protein kinase receptor Ret (Homo sapiens, UniProt P07949) (P07949 whole entry): as the sequence (P07949 whole entry G810R) above, with R810G counted along it
Chain of Proto-oncogene tyrosine-protein kinase receptor Ret (Homo sapiens), P07949 [V804L] (P07949 whole entry V804L): as the sequence (P07949 whole entry G810R) above, with V804L, R810G counted along it

Turning to `COc1ccc(CN2C3CC2CN(c2ccc(-c4nc(C5CC5)cc5ncccc45)cn2)C3)cn1`, the 50% inhibitory concentration (IC50) in experiment [1] turned out to be 12.5 nM; in [2], 17.3 nM; in experiment [3], 538 nM; in experiment [4], 15.7 nM.
Turning to `COc1ccc(CN2C3CC2CN(c2ccc(-c4nc(-c5cnn(C)c5)cc5ncccc45)cn2)C3)cc1[N+](=O)[O-]`, the IC50 in experiment [1] turned out to be 95.2 nM; in experiment [2], 127 nM; in experiment [4], 247 nM.
`Cn1cc(-c2cc3ncccc3c(-c3ccc(N4CC5CC(C4)N5C(=O)Cc4cccc(F)c4)nc3)n2)cn1`: the IC50 in [1] is 2.3 nM; in [2], 3 nM; in experiment [3], 149 nM; in [4], 4.8 nM.
With `Cn1cc(-c2cc3ncccc3c(-c3ccc(N4CC5CC(C4)N5Cc4ccc(Cl)nc4)nc3)n2)cn1`, the IC50 was 2.3 nM in [1], 5.1 nM in experiment [2], 361 nM in experiment [3] and 9.8 nM in experiment [4].
`COc1ccc(CN2C3CC2CN(c2ccc(-c4nccc5ncccc45)cn2)C3)cn1`: the 50% inhibitory concentration (IC50) in experiment [1] came out at 42.2 nM; in experiment [2], 35.8 nM; in experiment [3], 186 nM; in experiment [4] it was 57.6 nM. For the same compound, the Ratio IC50 in experiment [5] worked out at 16; in experiment [6], 4.
Take `COc1ccc(CN2C3CC2CN(c2ccc(-c4nc(Cl)cc5ncccc45)cn2)C3)cn1`: the half-maximal inhibitory concentration (IC50) was 57.2 nM in [1], 58.4 nM in experiment [2], 229 nM in experiment [3] and 69.3 nM in experiment [4].
In the case of `COc1ccc(CN2C3CC2CN(c2ccc(-c4nc(-c5ccncc5)cc5ncccc45)cn2)C3)cn1`, the IC50 came out at 328 nM in experiment [1], 215 nM in experiment [2] and 166 nM in [4].
In the case of `Cn1cc(-c2cc3ncccc3c(-c3ccc(N4CC5CC(C4)N5C(=O)CC4CCOCC4)nc3)n2)cn1`, the IC50 worked out at 91.4 nM in experiment [1], 54.9 nM in experiment [2] and 62.2 nM in experiment [4].
As for `COc1ccc(CN2C3CC2CN(c2ccc(-c4nc(-c5ccn(C)n5)cc5ncccc45)cn2)C3)cn1`, the IC50 stood at 21.1 nM in experiment [1], 50.4 nM in [2], 96.7 nM in [3] and 49.4 nM in [4].
`COc1ccc(CN2C3CC2CN(c2ccc(-c4nc(-c5cnn(C)c5)cc5ncccc45)cn2)C3)cc1Cl`: the concentration for half-maximal inhibition (IC50) in experiment [1] is 8.5 nM; in experiment [2], 11.3 nM; in experiment [3], 85.9 nM; in experiment [4], 25.1 nM.
For the compound `Cn1cc(-c2cc3ncccc3c(-c3ccc(N4CC5CC(C4)N5C(=O)CN4CCOCC4)nc3)n2)cn1`, the IC50 in experiment [1] was 121 nM; in experiment [2], 107 nM; in experiment [4] it was 112 nM.
Regarding `COc1ccc(CN2C3CC2CN(c2ccc(-c4cccc5ncccc45)cn2)C3)cn1`, the concentration for half-maximal inhibition (IC50) in [1] was determined as 285 nM; in experiment [2], 304 nM; in [4], 198 nM.
For the compound `COc1ccc(CN2C3CC2CN(c2ccc(-c4nc(-c5ccc(F)cc5)cc5ncccc45)cn2)C3)cn1`, the half-inhibitory concentration (IC50) in [1] is 517 nM; in experiment [2], 408 nM; in [4] it was 242 nM.
On to `COc1ccc(CN2C3CC2CN(c2ccc(-c4nc(-c5cnn(C)c5)cc5ncccc45)cn2)C3)cc1Br`, for which the IC50 in experiment [1] worked out at 13.7 nM; in experiment [2], 17.2 nM; in experiment [3] it was 107 nM; in experiment [4] it was 41.3 nM.
As to `Cn1cc(-c2cc3ncccc3c(-c3ccc(N4CC5CC(C4)N5Cc4ccc(F)nc4)nc3)n2)cn1`, the IC50 in [1] came out at 5.6 nM; in experiment [2] it was 9.3 nM; in experiment [3], 237 nM; in [4], 16.8 nM.
Regarding `COc1ccc(CN2C3CC2CN(c2ccc(-c4cccc5ncncc45)cn2)C3)cn1`, the IC50 in [1] was 70.4 nM; in experiment [2], 91.5 nM; in experiment [3] it was 307 nM; in experiment [4], 86.3 nM.
In the case of `Cn1cc(-c2cc3ncccc3c(-c3ccc(N4CC5CC(C4)N5C(=O)Cc4cccc(Cl)c4)nc3)n2)cn1`, the half-inhibitory concentration (IC50) in [1] was found to be 4 nM; in experiment [2], 5.9 nM; in [3] it was 180 nM; in [4], 9.1 nM.
For `COc1ccc(CN2C3CC2CN(c2ccc(-c4nc(C)cc5ncccc45)cn2)C3)cn1`, in that order: 18.6 nM, 33.6 nM, 416 nM and 28.5 nM.
For `COc1ccc(CN2C3CC2CN(c2ccc(-c4nc(-c5cnn(C)c5)cc5ncccc45)cn2)C3)cc1`, in that order: 3.1 nM, 4.7 nM, 114 nM and 7.6 nM.
Consider `COc1ccc(CN2C3CC2CN(c2ccc(-c4cc(OCC(C)(C)O)cn5ncc(C#N)c45)cn2)C3)cn1` [SELPERCATINIB], for which the half-maximal inhibitory concentration (IC50) with BaF3 [7] was found to be 896 nM; in the experiment on BaF3 [8] it was 8.2 nM; with BaF3 [9] it was 17.8 nM; with BaF3 [10] it was 2170 nM; in the experiment with BaF3 [12] it was 9.5 nM. Moreover, the inhibition in vivo at 10 mg/kg in the experiment on BaF3 [11] is 20%; in the experiment with BaF3 [13] it was 89%.
For `COc1ccc(CC(=O)N2C3CC2CN(c2ccc(-c4nc(-c5cnn(C)c5)cc5ncccc45)cn2)C3)cn1`, the 50% inhibitory concentration (IC50) came out at 2.6 nM in experiment [1], 4.9 nM in experiment [2], 132 nM in experiment [3] and 5.7 nM in [4].
As to `Cc1ccc(CN2C3CC2CN(c2ccc(-c4nc(-c5cnn(C)c5)cc5ncccc45)cn2)C3)cn1`, the half-inhibitory concentration (IC50) in [1] stood at 14.4 nM; in experiment [2], 16.2 nM; in [3] it was 437 nM; in [4], 12.5 nM.
In the case of `COc1ccc(CN2C3CC2CN(c2ccc(-c4nc(-c5cn[nH]c5)cc5ncccc45)cn2)C3)cn1`, the concentration for half-maximal inhibition (IC50) in experiment [1] turned out to be 1.1 nM; in [2] it was 6.5 nM; in experiment [3], 69.1 nM; in experiment [4], 5.9 nM. For the same compound, the Ratio IC50 in [14] is 4.
As for `COc1ccc(CN2C3CC2CN(c2ccc(-c4nc(-c5cnn(C)c5)cc5ncccc45)cn2)C3)cc1N`, the half-maximal inhibitory concentration (IC50) in experiment [1] came to 86.4 nM; in experiment [2] it was 176 nM; in experiment [4], 166 nM.
For `COc1ccc(CN2C3CC2CN(c2ccc(-c4cccc5nccnc45)cn2)C3)cn1`, in that order: 135 nM, 141 nM and 172 nM.
In the case of `COc1ccc(CN2C3CC2CN(c2ccc(-c4nc(-c5cc[nH]n5)cc5ncccc45)cn2)C3)cn1`, the IC50 in [1] worked out at 55.7 nM; in experiment [2], 49.7 nM; in experiment [3], 109 nM; in [4], 68.2 nM.
For `COc1ccc(CN2C3CC2CN(c2ccc(-c4cccc5c4OCCO5)cn2)C3)cn1`, the IC50 in [1], in experiment [2] and in experiment [4] was above 1000 nM each time.
As for `COc1ccc(CN2C3CC2CN(c2ccc(-c4nc(-c5cnn(C)c5)cc5ncccc45)cn2)C3)cn1`, the IC50 was found to be 0.4 nM in [1], 1.2 nM in [2], 56.2 nM in [3] and 3.8 nM in experiment [4]. Besides, in experiment [14], the Ratio IC50 was determined as 4.
Consider `COc1ccc(CN2C3CC2CN(c2ccc(-c4nc(-c5cnn(C)c5)cc5ncccc45)cn2)C3)cc1C(F)(F)F`, for which the IC50 is 22.6 nM in experiment [1], 14.7 nM in experiment [2], 116 nM in [3] and 37.5 nM in experiment [4].
With `Cn1cc(-c2cc3ncccc3c(-c3ccc(N4CC5CC(C4)N5Cc4cccnc4)nc3)n2)cn1`, the IC50 amounted to 41.1 nM in experiment [1], 33.5 nM in experiment [2], 371 nM in experiment [3] and 26.7 nM in [4].
Take `COc1ccc(CN2C3CC2CN(c2ccc(-c4cccc5cnccc45)cn2)C3)cn1`: the IC50 in experiment [1] stood at 786 nM; in experiment [2] it was 615 nM; in experiment [4], 591 nM.
As to `COc1ccc(CN2C3CC2CN(c2ccc(-c4nc(-c5cnn(C)c5)cc5ncccc45)cn2)C3)cc1F`, the IC50 worked out at 0.3 nM in experiment [1], 0.6 nM in experiment [2], 37.8 nM in [3] and 5.5 nM in [4]. Also, in experiment [14], the Ratio IC50 came to 6.
Take `Cn1cc(-c2cc3ncccc3c(-c3ccc(N4CC5CC(C4)N5C(=O)Cc4cc(F)cc(F)c4)nc3)n2)cn1`: the half-maximal inhibitory concentration (IC50) in experiment [1] came out at 4.7 nM; in experiment [2], 6.7 nM; in [3], 221 nM; in [4], 6.7 nM.
